Test results published in ChEMBL document CHEMBL3352641, “Discovery of pyrrolo[1,2-b]pyridazine-3-carboxamides as Janus kinase (JAK) inhibitors” (Bioorg Med Chem Lett, 2014).

What was measured:
[1] = biological target: T1, Tyrosine-protein kinase JAK3 (Homo sapiens, UniProt P52333); experiment: Inhibition of JAK3 (unknown origin) by filter assay
T1 sequence (P52333 whole entry): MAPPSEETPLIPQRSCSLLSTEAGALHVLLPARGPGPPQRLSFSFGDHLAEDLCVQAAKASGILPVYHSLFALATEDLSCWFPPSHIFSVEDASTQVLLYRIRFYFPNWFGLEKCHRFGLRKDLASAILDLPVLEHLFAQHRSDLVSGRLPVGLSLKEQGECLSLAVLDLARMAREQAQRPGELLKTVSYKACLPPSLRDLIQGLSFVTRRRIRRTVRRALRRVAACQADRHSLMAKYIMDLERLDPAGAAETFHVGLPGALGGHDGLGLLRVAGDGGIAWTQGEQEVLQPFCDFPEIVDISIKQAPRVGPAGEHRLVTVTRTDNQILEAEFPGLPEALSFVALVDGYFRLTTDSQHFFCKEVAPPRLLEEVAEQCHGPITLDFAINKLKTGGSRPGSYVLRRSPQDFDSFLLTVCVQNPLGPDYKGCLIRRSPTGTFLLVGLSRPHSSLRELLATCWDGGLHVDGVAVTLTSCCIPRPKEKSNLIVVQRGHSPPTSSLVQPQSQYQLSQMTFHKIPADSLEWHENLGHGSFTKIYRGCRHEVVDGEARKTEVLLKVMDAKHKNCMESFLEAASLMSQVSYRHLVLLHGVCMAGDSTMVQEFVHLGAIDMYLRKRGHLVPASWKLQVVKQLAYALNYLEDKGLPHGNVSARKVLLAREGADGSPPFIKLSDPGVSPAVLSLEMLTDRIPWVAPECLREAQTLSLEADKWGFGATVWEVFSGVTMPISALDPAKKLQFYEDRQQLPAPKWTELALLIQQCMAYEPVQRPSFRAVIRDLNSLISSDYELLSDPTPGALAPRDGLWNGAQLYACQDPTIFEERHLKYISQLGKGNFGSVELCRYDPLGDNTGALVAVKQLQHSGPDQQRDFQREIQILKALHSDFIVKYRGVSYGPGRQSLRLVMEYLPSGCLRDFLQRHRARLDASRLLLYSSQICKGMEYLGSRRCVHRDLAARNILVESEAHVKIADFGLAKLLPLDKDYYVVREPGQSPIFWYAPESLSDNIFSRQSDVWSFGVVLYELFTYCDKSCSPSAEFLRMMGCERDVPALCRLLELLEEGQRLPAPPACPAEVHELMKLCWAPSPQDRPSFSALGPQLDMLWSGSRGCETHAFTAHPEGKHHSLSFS

[2] = biological target: Tyrosine-protein kinase JAK1 (Homo sapiens, UniProt P23458); experiment: Inhibition of JAK1 (unknown origin) bycaliper assay
[3] = biological target: Non-receptor tyrosine-protein kinase TYK2 (Homo sapiens, UniProt P29597); experiment: Inhibition of TYK2 (unknown origin) by caliper assay
[4] = biological target: Tyrosine-protein kinase JAK2 (Homo sapiens, UniProt O60674); experiment: Inhibition of JAK2 (unknown origin) by caliper assay
Blood = experiment: Inhibition of IL2-induced IFN-gamma production in human whole blood incubated for 18 hrs by ELISA method; assay type: functional, tissue-based
[5] = Fraction unbound in human serum; assay type: ADME, cell-free

Tyrosine-protein kinase JAK1, sequence (P23458 whole entry): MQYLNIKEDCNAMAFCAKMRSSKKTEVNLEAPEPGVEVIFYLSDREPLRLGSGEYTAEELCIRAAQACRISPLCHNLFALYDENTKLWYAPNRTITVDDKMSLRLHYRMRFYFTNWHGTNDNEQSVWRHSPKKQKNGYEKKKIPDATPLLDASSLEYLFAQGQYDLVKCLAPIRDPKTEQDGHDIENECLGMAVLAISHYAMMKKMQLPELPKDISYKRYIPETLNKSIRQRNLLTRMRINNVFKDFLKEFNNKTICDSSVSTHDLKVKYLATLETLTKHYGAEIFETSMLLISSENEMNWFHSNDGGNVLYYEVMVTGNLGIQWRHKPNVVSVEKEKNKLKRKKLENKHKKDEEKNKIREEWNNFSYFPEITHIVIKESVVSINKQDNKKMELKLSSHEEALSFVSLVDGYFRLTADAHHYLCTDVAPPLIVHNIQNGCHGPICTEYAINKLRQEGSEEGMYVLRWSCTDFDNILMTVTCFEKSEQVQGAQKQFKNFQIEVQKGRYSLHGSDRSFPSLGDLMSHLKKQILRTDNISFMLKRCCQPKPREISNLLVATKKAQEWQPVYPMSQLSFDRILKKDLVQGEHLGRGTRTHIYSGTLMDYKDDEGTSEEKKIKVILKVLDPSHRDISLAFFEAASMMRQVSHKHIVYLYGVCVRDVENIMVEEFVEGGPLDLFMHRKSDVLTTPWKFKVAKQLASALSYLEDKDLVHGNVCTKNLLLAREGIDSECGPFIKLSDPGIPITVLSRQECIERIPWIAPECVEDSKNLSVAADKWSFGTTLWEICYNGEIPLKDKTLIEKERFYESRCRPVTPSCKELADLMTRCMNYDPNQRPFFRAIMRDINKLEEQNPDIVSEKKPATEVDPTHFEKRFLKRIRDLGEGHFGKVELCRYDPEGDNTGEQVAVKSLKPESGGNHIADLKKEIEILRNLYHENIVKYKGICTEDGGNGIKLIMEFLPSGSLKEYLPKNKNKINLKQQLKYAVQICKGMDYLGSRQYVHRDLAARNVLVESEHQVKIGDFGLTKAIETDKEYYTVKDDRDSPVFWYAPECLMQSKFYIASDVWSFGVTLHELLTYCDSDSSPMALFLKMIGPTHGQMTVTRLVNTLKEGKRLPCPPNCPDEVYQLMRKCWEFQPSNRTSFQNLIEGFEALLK
Tyrosine-protein kinase JAK2, sequence (O60674 whole entry): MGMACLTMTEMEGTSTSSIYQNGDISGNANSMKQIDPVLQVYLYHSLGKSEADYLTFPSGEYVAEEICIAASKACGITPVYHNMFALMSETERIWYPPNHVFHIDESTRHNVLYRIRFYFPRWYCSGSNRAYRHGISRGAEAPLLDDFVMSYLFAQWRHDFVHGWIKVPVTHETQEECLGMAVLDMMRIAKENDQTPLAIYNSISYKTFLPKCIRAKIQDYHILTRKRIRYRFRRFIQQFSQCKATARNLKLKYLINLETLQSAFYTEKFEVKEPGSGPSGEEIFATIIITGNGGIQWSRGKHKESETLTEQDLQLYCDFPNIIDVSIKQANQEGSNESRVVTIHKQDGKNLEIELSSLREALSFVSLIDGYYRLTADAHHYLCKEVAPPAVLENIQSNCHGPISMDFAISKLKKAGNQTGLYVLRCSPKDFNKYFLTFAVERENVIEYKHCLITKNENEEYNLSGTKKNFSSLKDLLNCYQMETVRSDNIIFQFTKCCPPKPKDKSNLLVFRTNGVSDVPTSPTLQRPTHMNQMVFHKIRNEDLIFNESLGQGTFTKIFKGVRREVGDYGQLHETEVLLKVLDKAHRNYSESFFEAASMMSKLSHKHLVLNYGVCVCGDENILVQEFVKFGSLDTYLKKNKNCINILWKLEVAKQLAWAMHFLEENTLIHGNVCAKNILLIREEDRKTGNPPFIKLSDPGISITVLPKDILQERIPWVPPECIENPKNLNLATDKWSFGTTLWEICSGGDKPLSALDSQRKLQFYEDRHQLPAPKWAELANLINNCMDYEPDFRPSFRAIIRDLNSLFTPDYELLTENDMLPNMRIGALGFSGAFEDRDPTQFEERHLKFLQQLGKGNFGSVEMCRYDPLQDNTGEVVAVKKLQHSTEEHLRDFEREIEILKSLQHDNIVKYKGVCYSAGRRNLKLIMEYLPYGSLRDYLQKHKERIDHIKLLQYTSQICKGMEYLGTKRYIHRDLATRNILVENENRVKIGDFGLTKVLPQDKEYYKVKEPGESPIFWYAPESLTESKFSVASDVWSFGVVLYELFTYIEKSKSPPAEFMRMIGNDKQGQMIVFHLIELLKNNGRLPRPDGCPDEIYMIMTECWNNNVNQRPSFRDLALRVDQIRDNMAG
Non-receptor tyrosine-protein kinase TYK2, sequence (P29597 whole entry): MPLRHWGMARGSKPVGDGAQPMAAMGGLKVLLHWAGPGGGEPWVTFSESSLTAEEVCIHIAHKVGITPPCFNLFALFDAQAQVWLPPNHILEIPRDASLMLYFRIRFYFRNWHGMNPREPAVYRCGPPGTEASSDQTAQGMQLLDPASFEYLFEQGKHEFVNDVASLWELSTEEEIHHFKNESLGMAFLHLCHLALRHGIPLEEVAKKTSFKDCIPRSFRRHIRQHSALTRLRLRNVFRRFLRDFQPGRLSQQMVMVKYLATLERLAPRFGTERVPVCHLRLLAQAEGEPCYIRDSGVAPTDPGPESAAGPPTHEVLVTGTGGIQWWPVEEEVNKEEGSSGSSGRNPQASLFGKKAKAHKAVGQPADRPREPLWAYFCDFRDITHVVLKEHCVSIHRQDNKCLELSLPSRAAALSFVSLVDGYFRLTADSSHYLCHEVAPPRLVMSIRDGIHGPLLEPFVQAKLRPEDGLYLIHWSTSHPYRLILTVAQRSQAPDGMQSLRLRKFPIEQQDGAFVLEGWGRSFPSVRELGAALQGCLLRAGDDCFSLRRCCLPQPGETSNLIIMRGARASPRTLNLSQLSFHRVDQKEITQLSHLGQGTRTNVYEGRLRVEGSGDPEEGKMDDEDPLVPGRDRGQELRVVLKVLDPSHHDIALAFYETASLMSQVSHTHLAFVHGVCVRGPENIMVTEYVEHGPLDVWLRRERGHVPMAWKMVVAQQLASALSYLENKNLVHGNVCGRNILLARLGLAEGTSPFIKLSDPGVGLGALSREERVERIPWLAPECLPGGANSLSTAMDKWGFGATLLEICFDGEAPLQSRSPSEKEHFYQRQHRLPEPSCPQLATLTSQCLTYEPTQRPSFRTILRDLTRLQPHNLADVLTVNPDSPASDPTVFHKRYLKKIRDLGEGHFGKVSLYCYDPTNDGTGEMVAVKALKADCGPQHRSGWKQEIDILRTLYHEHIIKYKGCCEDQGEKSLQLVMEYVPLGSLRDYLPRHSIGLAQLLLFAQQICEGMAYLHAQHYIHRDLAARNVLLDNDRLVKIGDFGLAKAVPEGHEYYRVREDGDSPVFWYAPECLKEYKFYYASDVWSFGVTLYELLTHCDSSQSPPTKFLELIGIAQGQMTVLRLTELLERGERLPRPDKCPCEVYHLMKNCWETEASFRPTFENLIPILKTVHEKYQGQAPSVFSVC

SMILES	IC50 [1] [µM]	IC50 [2] [µM]	IC50 [3] [µM]	IC50 [4] [µM]	IC50 (Blood) [µM]	fraction unbound [5]
CC1(C)[C@H](Nc2c(C(N)=O)cnn3cccc23)CC[C@]1(C)O (racemic)	0.028	0.067	0.21	0.1	5	
CC1(C)C[C@@](C)(O)C[C@H]1Nc1c(C(N)=O)cnn2cccc12 (racemic)	0.03	0.15	0.28	0.35	3.2	
CC1(C)[C@H](N)CC[C@H]1Nc1c(C(N)=O)cnn2cccc12 (racemic)	0.024	0.041	0.11	0.17	0.25	
C[C@@]1(O)CCC[C@H]1Nc1c(C(N)=O)cnn2cccc12 (racemic)	0.042	0.27			5.3	
C[C@]1(CO)CCC[C@H]1Nc1c(C(N)=O)cnn2cccc12 (racemic)	0.024	0.084	0.034	0.11	1.5	
C[C@@]1(CO)CCC[C@H]1Nc1c(C(N)=O)cnn2cccc12 (racemic)	0.14	0.25	0.39	0.38		
C[C@]1(C#N)CCC[C@H]1Nc1c(C(N)=O)cnn2cccc12 (racemic)	0.01	0.015	0.006		0.25	0.27
C[C@@]1(F)CCC[C@H]1Nc1c(C(N)=O)cnn2cccc12 (racemic)	0.043	0.1	0.11	0.21		

The remaining lines, values ahead:

IC50 [1] [µM]	IC50 [2] [µM]	IC50 [3] [µM]	IC50 [4] [µM]	IC50 (Blood) [µM]	fraction unbound [5]	SMILES
0.003	0.026	0.007	0.031	0.36	0.16	CC1(C)[C@H](Nc2c(C(N)=O)cnn3cccc23)CC[C@@]1(C)O (racemic)
0.015	0.05	0.09	0.061	1.7		CC1(C)C[C@](C)(O)C[C@H]1Nc1c(C(N)=O)cnn2cccc12 (racemic)
0.012	0.034	0.11	0.13	0.26	0.44	CC1(C)[C@@H](N)CC[C@H]1Nc1c(C(N)=O)cnn2cccc12 (racemic)
0.069	0.11					C[C@]1(O)CCC[C@H]1Nc1c(C(N)=O)cnn2cccc12 (racemic)
